# Experimental data as given in publication PMC4721142, “Randomized controlled studies on the efficacy of antiarthritic agents in inhibiting cartilage degeneration and pain associated with progression of osteoarthritis in the rat” (Arthritis Research & Therapy, 2016).
# “And” between values parts separate entries of the source, which are not always exact repeats. Equal values may be shown once.
# Columns and labels:
# MIA rat model of OA = assay: MIA trial 2 histopathology (same doses as dRS test); assay type: in vivo; parameters: key to Total joint score with matrix / Total joint score w/o matrix: sum of cartilage degeneration, osteophyte and bone scores (± matrix); conditions: group mean
# Description: Following functional testing in the first and second MIA trials, femurs were fixed in paraformaldehyde, processed, sectioned, stained with hematoxylin and eosin or Safranin O at Premier Laboratory (Longmont, CO, USA), and analyzed by a veterinary pathologist. For MIA trial 1, sections were evaluated for the percentage area of chondrocyte necrosis and/or proteolytic degeneration using a 5-point scale with 0 = none; 1 being <10 %; 2 = 10–30 %; 3 = 30–60 %; 4 = 60–90 %; and 5 being >90 %. Other characteristics of inflammation, proliferation, and integrity of the synovium, subchondral bone, and articular cartilage were scored as normal, minimal, mild, moderate, marked, or increased or decreased when severity was not graded. MIA trial 2 was measured similarly and then cross-checked according to the methods used for MIA trial 3 (see text below).
# For MIA trial 3, joints were fixed and toluidine blue–stained sections of the rat knees were comprehensively analyzed from test and control subjects as detailed in Additional file 1. Briefly, a 5-point cartilage matrix score was derived based upon (1) approximate percentage of total loss of articular chondrocytes for each of four articular surfaces, (2) estimated proteoglycan loss (via Safranin O staining), and (3) loss of interstitial matrix. Chondrocyte necrosis and proteolytic degeneration of the femurs were scored on a 5-point scale as in trial 1. A femoral cartilage degeneration score and a three-zone sum of the tibial cartilage degeneration scores (mean of three levels) were also summed to create a total cartilage degeneration score. The mean osteophyte score for each joint was added to this value to create a total joint score with matrix. Other parameters assessed included synovial membrane inflammation and proliferation. Representative images from each group were also collected (see, e.g., Fig. 4 and Additional file 1: Fig. S55, Trial 3).
# The histopathology for the first MIA trial was performed by Premier Laboratories (Dr. Michael Hawes, APS, Pathologist). Treatments were masked during the assessment. Chondrocyte necrosis and proteolytic degeneration of the femurs were scored on a 5 point scale with 0 = None; 1 = <10%; […]
# proteoglycan content (safranin O staining), synovial membrane inflammation and proliferation, subchondral bone, and articular cartilage (as indicated in Supplementary methods). Characteristics within these categories were scored as normal, minimal, mild, moderate, marked, or +/- when severity was not graded. Slides from Trial 2 were further reviewed by Dr. Bendele using the analytical method described below for the MMT/MCLT model to confirm any conclusions.
# For the histopathology of the MIA model in Trial 3, completed by Bolder BioPATH (and Dr.
# Bendele), a tolouidine blue stained slide containing both halves of the joint was comprehensively analyzed from test and control subjects. Approximate % of total loss of articular chondrocytes, loss of proteoglycan and loss of collagenous matrix were determined for each articular surface (medial tibial plateau (MTP), lateral tibial plateau (LTP), medial femoral condyle (MFC), and lateral femoral condyle (LFC). Chondrocyte loss was quantified by estimating the area of cartilage in which there were no apparently viable chondrocytes and proteoglycan loss was quantified by estimating differences in intensity of toluidine blue matrix staining. Loss of interstitial matrix was an indication of disruption and diminished type II collagen. Based on the mean % loss for the four surfaces in these parameters, a five point matrix score was utilized with the subchondral bone resorption, subchondral bone sclerosis and osteophyte scores to achieve a total joint score.
# Histopathology MMT/MCLT Model
# NF-κB = assay: TNF-α-stimulated NF-κB dual luciferase reporter assay in HeLa cells; assay type: cell-based
# Description: NF-κB activity was assessed using a previously described dual plasmid reporter system. HeLa cells were transfected with NF-κB luciferase (Stratagene Products Division, Agilent Technologies, La Jolla, CA, USA) and pRLuc-N3 (PerkinElmer, Waltham, MA, USA) at an 8:1 ratio, respectively, in triplicate. […] NF-κB activity was measured 5 h later with a Dual-Glo Luciferase Assay (Promega, Madison, WI, USA) and an Omni plate reader (BMG Labtech, Cary, NC, USA). The ratio of firefly luciferase luminescence (NF-κB reporter) to Renilla luciferase luminescence (control) was normalized for the number of viable transfected cells. Data are reported as a ratio of activity of viable treated cells over the activity of cells not exposed to TNF-α or drug (fold stimulation above basal untreated levels of activity). The viability of HeLa cells with and without drug was also measured using a CellTiter-Glo luminescent viability assay (Promega). […]
# NF-κB activity was assessed in HeLa cells that were transiently transfected with two reporter constructs as described in the manuscript. Agents were tested for their ability to block TNF- […]
# Expression of the luciferase from the Renilla construct was used as a measure of viability, which was confirmed with a cytotoxicity assay (see later section).
# HeLa cells = assay: HeLa cell viability (CellTiter-Glo)
# Description: NF-κB activity was assessed using a previously described dual plasmid reporter system. HeLa cells were transfected with NF-κB luciferase (Stratagene Products Division, Agilent Technologies, La Jolla, CA, USA) and pRLuc-N3 (PerkinElmer, Waltham, MA, USA) at an 8:1 ratio, respectively, in triplicate. […] NF-κB activity was measured 5 h later with a Dual-Glo Luciferase Assay (Promega, Madison, WI, USA) and an Omni plate reader (BMG Labtech, Cary, NC, USA). The ratio of firefly luciferase luminescence (NF-κB reporter) to Renilla luciferase luminescence (control) was normalized for the number of viable transfected cells. Data are reported as a ratio of activity of viable treated cells over the activity of cells not exposed to TNF-α or drug (fold stimulation above basal untreated levels of activity). The viability of HeLa cells with and without drug was also measured using a CellTiter-Glo luminescent viability assay (Promega).
# In Vitro Hela Cell Drug Toxicity Testing
# Potential drug toxicity was measured using a CTG assay and HeLa cells (Promega). Drugs not tested in
# this assay were tested in either of the in vitro toxicity assays already presented (synovial or chondrocyte
# Table 3- Drug toxicity measured using a CTG assay and HeLa cells.
# [1] = tacrolimus 0.3 mg/kg, other drugs single dose
SMILES,Bone resorption score (MIA rat model of OA; [1]),"Bone resorption, percent of surface, LFC (MIA rat model of OA; [1]) [%]","Bone resorption, percent of surface, LTP (MIA rat model of OA; [1]) [%]","Bone resorption, percent of surface, MFC (MIA rat model of OA; [1]) [%]","Bone resorption, percent of surface, MTP (MIA rat model of OA; [1]) [%]","Bone resorption, percent of surface, mean (MIA rat model of OA; [1]) [%]",Cartilage matrix damage score (MIA rat model of OA; [1]),Mean of all cartilage loss (MIA rat model of OA; [1]) [%],Osteophyte measure (MIA rat model of OA; [1]) [µm],Osteophyte score (MIA rat model of OA; [1]),Subchondral bone sclerosis score (MIA rat model of OA; [1]),Total joint score w/o matrix (MIA rat model of OA; [1]),Total joint score with matrix (MIA rat model of OA; [1]),Effective range against NFkB (NF-κB),Non-toxic concentrations (HeLa cells) [M],other results
Clc1cccc(Cl)c1N=C1NCCN1 [Clonidine],3.7,87,53,63,73,69,3.7 and 3.7 ± 0.3,67,866.7,4.0,0.3,8.0,11.7 and 11.7 ± 0.9,Not effective,–,–
"COc1cc(/C=C/C(=O)CC(=O)/C=C/c2ccc(O)c(OC)c2)ccc1O [Curcumin, Diferuloylmethane]",4.8,100,100,88,90,94,5.0 and 5.0 ± 0.0,89,1000.0,4.8,0.0,9.5,14.5 and 14.5 ± 0.3,–,0 to 33.75,–
"CC1(C)O[C@@H]2C[C@H]3[C@@H]4C[C@H](F)C5=CC(=O)C=C[C@]5(C)[C@@]4(F)[C@@H](O)C[C@]3(C)[C@]2(C(=O)CO)O1 [Fluocinolone, Fluocinolone Acetonide]",3.0,65,58,38,45,51,3.3 and 3.3 ± 0.8,60,600.0,3.0,0.0,6.0,9.3 and 9.3 ± 2.5,–,–,–
C=CC[C@@H]1/C=C(\C)C[C@H](C)C[C@H](OC)[C@H]2O[C@@](O)(C(=O)C(=O)N3CCCC[C@H]3C(=O)O[C@H](/C(C)=C/[C@@H]3CC[C@@H](O)[C@H](OC)C3)[C@H](C)[C@@H](O)CC1=O)[C@H](C)C[C@@H]2OC [Tacrolimus],4.3,88,88,70,94,85,3.8 and 3.8 ± 0.6,69,700.0,3.5,0.0,7.8,11.5 and 11.5 ± 1.7,–,0 to 49.6,"Bone resorption score (MIA rat model of OA; tacrolimus 0.6 mg/kg i.p.): 3.8; Bone resorption, percent of surface, LFC (MIA rat model of OA; tacrolimus 0.6 mg/kg i.p.): 80%; Bone resorption, percent of surface, LTP (MIA rat model of OA; tacrolimus 0.6 mg/kg i.p.): 70%; Bone resorption, percent of surface, MFC (MIA rat model of OA; tacrolimus 0.6 mg/kg i.p.): 63%; Bone resorption, percent of surface, MTP (MIA rat model of OA; tacrolimus 0.6 mg/kg i.p.): 68%; Bone resorption, percent of surface, mean (MIA rat model of OA; tacrolimus 0.6 mg/kg i.p.): 70%; Cartilage matrix damage score (MIA rat model of OA; tacrolimus 0.6 mg/kg i.p.): 3.8 and 3.8 ± 0.6; Mean of all cartilage loss (MIA rat model of OA; tacrolimus 0.6 mg/kg i.p.): 62%; Osteophyte measure (MIA rat model of OA; tacrolimus 0.6 mg/kg i.p.): 550.0 µm; Osteophyte score (MIA rat model of OA; tacrolimus 0.6 mg/kg i.p.): 2.8; Subchondral bone sclerosis score (MIA rat model of OA; tacrolimus 0.6 mg/kg i.p.): 0.0; Total joint score w/o matrix (MIA rat model of OA; tacrolimus 0.6 mg/kg i.p.): 6.5; Total joint score with matrix (MIA rat model of OA; tacrolimus 0.6 mg/kg i.p.): 10.3 and 10.3 ± 2.1"
"COc1ccc(C=CC(=O)Nc2ccccc2C(=O)O)cc1OC [Tranilast, N-(3′,4′-dimethoxycinnamoyl)anthranilic acid]",–,–,–,–,–,–,–,–,–,–,–,–,–,None,–,–
CC1=C(CO)C(=O)O[C@@H]([C@@H](C)[C@H]2CC[C@H]3[C@@H]4C[C@H]5O[C@]56[C@@H](O)C=CC(=O)[C@]6(C)[C@H]4CC[C@]23C)C1 [Withaferin A],–,–,–,–,–,–,–,–,–,–,–,–,–,–,0 to 17,Effective against NF κβ (p<0.05) (NF-κB): 2 to 17 µM
